Values of other authors in patent EP0200541B1, “Immunochemical method and analytical composition and element for determination of creatine kinase-MB” (EASTMAN KODAK COMPANY (a New Jersey corporation), priority 1985, dated 1986).

Experiments:
total AK = details: AMP:ADP molar ratio of 10:1
liver AK = liver AK (Homo sapiens, UniProt P54819)
muscle AK = biological target: T1, muscle AK (Homo sapiens, UniProt P00568); details: 0.01 millimolar DAPP
T1 sequence (P00568 1-194): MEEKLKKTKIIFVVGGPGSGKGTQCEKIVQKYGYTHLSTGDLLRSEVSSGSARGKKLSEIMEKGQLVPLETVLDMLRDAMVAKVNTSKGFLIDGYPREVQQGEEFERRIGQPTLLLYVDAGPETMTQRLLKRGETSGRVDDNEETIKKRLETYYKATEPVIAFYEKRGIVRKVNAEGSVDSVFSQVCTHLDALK

CK-MB = CK-MB (Homo sapiens, UniProt P06732+P12277); details: 0.5-1 millimolar DAPP
erythrocyte AK = biological target: T2, erythrocyte AK (Homo sapiens, UniProt P00568); details: 0.01 millimolar DAPP
T2 sequence (P00568 1-194): T1 sequence (P00568 1-194)

CK-MB, sequence (P06732 whole entry): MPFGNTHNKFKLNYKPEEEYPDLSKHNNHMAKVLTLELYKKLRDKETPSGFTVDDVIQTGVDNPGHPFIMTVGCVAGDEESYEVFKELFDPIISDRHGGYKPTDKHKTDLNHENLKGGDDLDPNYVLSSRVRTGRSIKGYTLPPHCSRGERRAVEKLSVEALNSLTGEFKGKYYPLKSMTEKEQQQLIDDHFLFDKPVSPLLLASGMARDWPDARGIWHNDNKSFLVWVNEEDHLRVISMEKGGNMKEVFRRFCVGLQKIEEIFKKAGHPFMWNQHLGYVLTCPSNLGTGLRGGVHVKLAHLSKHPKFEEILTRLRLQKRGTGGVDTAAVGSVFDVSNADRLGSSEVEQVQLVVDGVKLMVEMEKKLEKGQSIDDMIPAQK
CK-MB, sequence (P12277 whole entry): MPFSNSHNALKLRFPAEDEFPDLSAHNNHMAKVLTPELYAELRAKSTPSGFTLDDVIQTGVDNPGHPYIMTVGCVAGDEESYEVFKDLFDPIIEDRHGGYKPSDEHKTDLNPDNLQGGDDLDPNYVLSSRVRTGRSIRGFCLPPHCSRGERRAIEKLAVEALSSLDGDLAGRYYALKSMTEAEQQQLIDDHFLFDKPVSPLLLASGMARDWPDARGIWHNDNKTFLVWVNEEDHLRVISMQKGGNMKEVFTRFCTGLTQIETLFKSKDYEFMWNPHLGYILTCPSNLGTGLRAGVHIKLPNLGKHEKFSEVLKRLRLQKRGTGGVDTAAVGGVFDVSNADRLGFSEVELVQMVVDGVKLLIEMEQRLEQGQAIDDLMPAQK

liver isoenzyme inhibited (liver AK; 0.01 millimolar DAPP) [%] | activity of liver AK inhibited (liver AK; 0.5-1 millimolar DAPP alone) | muscle AK inhibited (muscle AK) [%] | reduction of the activity of CK-MB (CK-MB) | erythrocyte AK inhibited (erythrocyte AK) [%] | SMILES | total AK inhibited (total AK) [%] | reduction of the activity of total CK (total CK; AMP:ADP molar ratio of 10:1) | reduction in CK activity (total CK; 0.5-1 millimolar DAPP alone) [%]
 |  |  |  |  | Nc1ncnc2c1ncn2[C@@H]1O[C@H](COP(=O)(O)O)[C@@H](O)[C@H]1O [AMP, adenosine-5'-monophosphate] | 95 | 15-20% | 
80 | up to 97% | 97 | at least 5% | 97 | Nc1ncnc2c1ncn2[C@@H]1O[C@H](COP(=O)(O)OP(=O)(O)OP(=O)(O)OP(=O)(O)OP(=O)(O)OC[C@H]2O[C@@H](n3cnc4c(N)ncnc43)[C@H](O)[C@@H]2O)[C@@H](O)[C@H]1O [DAPP, P^1,P^5-di(adenosine-5')pentaphosphate] |  |  | 5
